Bounds are passed on as bounds.

With `CN(C)c1ccc(-c2[nH]nc3c2C(=O)c2c(NC(=O)CN4CCC(O)CC4)cccc2-3)cc1` [Example LXXX, 3-(4-(N,N-dimethylamino)phenyl)-5-(4-hydroxypiperidinoacetamido)indeno[1,2-c]pyrazol-4-one], the melting point is 267 °C. Compound `O=C(CN1CCOCC1)Nc1cccc2c1C(=O)c1c-2n[nH]c1-c1ccc(N2CCOCC2)cc1` [Example LXXXI, 3-(4-morpholinophenyl)-5-(morpholinoacetamido)indeno[1,2-c]pyrazol-4-one] returned a melting point of 258 °C. `O=C(CN1CCC(O)CC1)Nc1cccc2c1C(=O)c1c-2n[nH]c1-c1ccc(N2CCOCC2)cc1` [Example LXXXIII, 3-(4-(4-morpholinyl)phenyl)-5-((4-hydroxy-1-piperidinyl)acetamido)indeno[1,2-c]pyrazol-4-one] showed a melting point of 245 °C.

Consider `NCC1CCN(CC(=O)Nc2cccc3c2C(=O)c2c-3n[nH]c2-c2ccc(N3CCOCC3)cc2)CC1` [Example LXXXIV, 3-(4-morpholinophenyl)-5-(4-(aminomethyl)piperidinoacetamido)indeno[1,2-c]pyrazol-4-one], for which the melting point came to 240 °C.

Compound `CN1CCN(NC(=O)Nc2cccc3c2C(=O)c2c-3n[nH]c2-c2ccc(N(C)C)cc2)CC1` [Example LXXXV, 3-(4-(N,N-dimethylamino)phenyl)-5-(4-methylpiperazinocarbamoylamino)indeno[1,2-c]pyrazol-4-one] had a melting point above 300 °C.

For the compound `COc1ccc(-c2[nH]nc3c2C(=O)c2c(NC(=S)NN4CCN(C)CC4)cccc2-3)cc1` [Example LXXXVI, 3-(4-methoxyphenyl)-5-((4-methylpiperazino)thionocarbamoylamino)indeno[1,2-c]pyrazol-4-one], the melting point was above 300 °C. The same measure for `Cn1ccc(-c2[nH]nc3c2C(=O)c2c(NC(N)=O)cccc2-3)c1` [Example LXXXVIX, 3-(1-methyl-3-pyrrolyl)-5-(carbamoylamino)indeno[1,2-c]pyrazol-4-one]: 269 °C.

In turn, `CCC(=O)Nc1cccc2c1C(=O)c1c-2n[nH]c1-c1ccc(OC)cc1` [Example V, 3-(4-methoxyphenyl)-5-(propanamido)indeno[1,2-c]pyrazol-4-one] yielded a melting point of 287 °C. The same measure for `COc1ccc(-c2[nH]nc3c2C(=O)c2c(NC(=O)C4CCCC4)cccc2-3)cc1` [Example VI, 3-(4-methoxyphenyl)-5-(cyclopentanecarboxamido)indeno[1,2-c]pyrazol-4-one]: 267 °C; for `COc1ccc(-c2[nH]nc3c2C(=O)c2c(NC(=O)C4CCC4)cccc2-3)cc1` [Example VII, 3-(4-methoxyphenyl)-5-(cyclobutanecarboxamido)indeno[1,2-c]pyrazol-4-one]: 297 °C; for `COc1ccc(-c2[nH]nc3c2C(=O)c2c(NC(=O)Cc4ccccc4)cccc2-3)cc1` [Example VIII, 3-(4-methoxyphenyl)-5-(phenylacetamido)indeno[1,2-c]pyrazol-4-one]: 280 °C. The same measure for `COc1ccc(-c2[nH]nc3c2C(=O)c2c(NC(=O)Cc4ccc(Cl)cc4)cccc2-3)cc1` [Example X, 3-(4-methoxyphenyl)-5-((4-chlorophenyl)acetamido)indeno[1,2-c]pyrazol-4-one]: 238 °C; for `CC(=O)Nc1cccc2c1C(=O)c1c-2n[nH]c1-c1sccc1C` [Example XC, 3-(3-methyl-2-thienyl)-5-(acetamido)indeno[1,2-c]pyrazol-4-one]: 275 °C. The same measure for `CCc1[nH]nc2c1C(=O)c1c(NC(N)=O)cccc1-2` [Example XCI, 3-(ethyl)-5-(carbamoylamino)indeno[1,2-c]pyrazol-4-one]: above 250 °C; for `CCCc1[nH]nc2c1C(=O)c1c(NC(N)=O)cccc1-2` [Example XCII, 3-(n-propyl)-5-(carbamoylamino)indeno[1,2-c]pyrazol-4-one]: 187 °C; for `CC(C)c1[nH]nc2c1C(=O)c1c(NC(N)=O)cccc1-2` [Example XCIII, 3-(i-propyl)-5-(carbamoylamino)indeno[1,2-c]pyrazol-4-one]: above 250 °C. On to `CCOC(=O)c1ccc(-c2[nH]nc3c2C(=O)c2c(NC(N)=O)cccc2-3)s1` [Example XCIX, 3-(5-carboethoxy-2-thienyl)-5-(carbamoylamino)indeno[1,2-c]pyrazol-4-one], for which the melting point is above 280 °C. The compound `Cc1ccsc1-c1[nH]nc2c1C(=O)c1c(NC(N)=O)cccc1-2` [Example XCVII, 3-(3-methyl-2-thienyl)-5-(carbamoylamino)indeno[1,2-c]pyrazol-4-one] came in with a melting point of 270 °C. To `Cc1ccc(-c2[nH]nc3c2C(=O)c2c(NC(N)=O)cccc2-3)s1` [Example XCVIII, 3-(5-methyl-2-thienyl)-5-(carbamoylamino)indeno[1,2-c]pyrazol-4-one] belongs above 280 °C.

Regarding `COc1ccc(-c2[nH]nc3c2C(=O)c2c(NC(=O)Cc4cccc(OC)c4)cccc2-3)cc1` [Example XI, 3-(4-methoxyphenyl)-5-((3-methoxyphenyl)acetamido)indeno[1,2-c]pyrazol-4-one], the melting point is above 300 °C. The same measure for `COc1ccc(CC(=O)Nc2cccc3c2C(=O)c2c-3n[nH]c2-c2ccc(OC)cc2)cc1` [Example XII, 3-(4-methoxyphenyl)-5-((4-methoxyphenyl)acetamido)indeno[1,2-c]pyrazol-4-one]: 280 °C. The same measure for `COc1ccc(-c2[nH]nc3c2C(=O)c2c(NC(=O)Cc4ccc(OC)c(OC)c4)cccc2-3)cc1` [Example XIII, 3-(4-methoxyphenyl)-5-((3,4-dimethoxyphenyl)acetamido)indeno[1,2-c]pyrazol-4-one]: above 300 °C; for `COc1ccc(-c2[nH]nc3c2C(=O)c2c(NC(=O)Cc4cc(OC)ccc4OC)cccc2-3)cc1` [Example XIV, 3-(4-methoxyphenyl)-5-((2,5-dimethoxyphenyl)acetamido)indeno[1,2-c]pyrazol-4-one]: 226 °C.

Compound `COc1ccc(-c2[nH]nc3c2C(=O)c2c(NC(=O)Cc4ccccc4OC)cccc2-3)cc1` [Example XIX, 3-(4-methoxyphenyl)-5-((2-methoxyphenyl)acetamido)indeno[1,2-c]pyrazol-4-one] gave a melting point of 255 °C.

For the compound `COc1ccc(-c2[nH]nc3c2C(=O)c2c(NC(=O)Cc4ccc(N=[N+]=[N-])cc4)cccc2-3)cc1` [Example XL, 3-(4-methoxyphenyl)-5-((4-azidophenyl)acetamido)indeno[1,2-c]pyrazol-4-one], the melting point is above 300 °C. In the case of `COc1ccc(-c2[nH]nc3c2C(=O)c2c(NC(=O)Cc4ccc(N)cc4)cccc2-3)cc1` [Example XLI, 3-(4-methoxyphenyl)-5-((4-aminophenyl)acetamido)indeno[1,2-c]pyrazol-4-one], the melting point is 283 °C. The same measure for `COc1ccc(-c2[nH]nc3c2C(=O)c2c(NC(=O)Nc4ccccc4)cccc2-3)cc1` [Example XLII, 3-(4-methoxyphenyl)-5-((phenylcarbamoyl)amino)indeno [1,2-c]pyrazol-4-one]: above 300 °C; for `CC(=O)Nc1cccc2c1C(=O)c1c-2n[nH]c1-c1ccncc1` [Example XLIX, 3-(4-pyridyl)-5-(acetamido)indeno [1,2-c]pyrazol-4-one]: above 300 °C; for `CC(=O)Nc1cccc2c1C(=O)c1c-2n[nH]c1-c1ccc(O)cc1` [Example XLVI, 3-(4-hydroxyphenyl)-5-(acetamido)indeno[1,2-c]pyrazol-4-one]: above 300 °C. `COc1ccc(-c2[nH]nc3c2C(=O)c2c(NC=O)cccc2-3)cc1` [Example XLVII, 3-(4-methoxyphenyl)-5-(formamido)indeno[1,2-c]pyrazol-4-one] yielded a melting point of 280 °C.

`CC(=O)Nc1cccc2c1C(=O)c1c-2n[nH]c1-c1cccnc1` [Example XLVIII, 3-(3-pyridyl)-5-(acetamido)indeno [1,2-c]pyrazol-4-one] returned a melting point above 300 °C. The same measure for `COc1ccccc1-c1[nH]nc2c1C(=O)c1c(NC(C)=O)cccc1-2` [Example XV, 3-(2-methoxyphenyl)-5-(acetamido)indeno[1,2-c]pyrazol-4-one]: 276 °C; for `COc1ccc(-c2[nH]nc3c2C(=O)c2c(NC(C)=O)cccc2-3)cc1OC` [Example XVI, 3-(3,4-dimethoxyphenyl)-5-(acetamido)indeno[1,2-c]pyrazol-4-one]: above 300 °C; for `COc1ccc(-c2[nH]nc3c2C(=O)c2c(NC(=O)Cc4ccccc4Cl)cccc2-3)cc1` [Example XXII, 3-(4-methoxyphenyl)-5-((2-chlorophenyl)acetamido)indeno[1,2-c]pyrazol-4-one]: 300 °C. The same measure for `COc1ccc(-c2[nH]nc3c2C(=O)c2c(NC(=O)CN)cccc2-3)cc1` [Example XXIII, 3-(4-methoxyphenyl)-5-(aminoacetamido)indeno[1,2-c]pyrazol-4-one]: above 300 °C; for `COc1ccc(-c2[nH]nc3c2C(=O)c2c(NC(=O)CNCCO)cccc2-3)cc1` [Example XXIV, 3-(4-methoxyphenyl)-5-((2-hydroxyethyl)aminoacetamido)indeno[1,2-c]pyrazol-4-one]: 243 °C.

Compound `COc1ccc(-c2[nH]nc3c2C(=O)c2c(NC(=O)CN4CCCCC4)cccc2-3)cc1` [Example XXIX, 3-(4-methoxyphenyl)-5-(piperidinoacetamido)indeno[1,2-c]pyrazol-4-one] showed a melting point of 291 °C. For the compound `COc1ccc(-c2[nH]nc3c2C(=O)c2c(NC(=O)CN4CCNCC4)cccc2-3)cc1` [Example XXVI, 3-(4-methoxyphenyl)-5-(piperazinoacetamido)indeno[1,2-c]pyrazol-4-one], the melting point was found to be 277 °C. On to `COc1ccc(-c2[nH]nc3c2C(=O)c2c(NC(=O)CN4CCN(C)CC4)cccc2-3)cc1` [Example XXVII, 3-(4-methoxyphenyl)-5-(4-methylpiperazinoacetamido)indeno[1,2-c]pyrazol-4-one], for which the melting point was above 300 °C.

As a reminder, the melting point is the temperature of the solid-liquid transition.
